Source: patent US4753953A, “Pyridonecarboxylic acid derivatives and antibacterial pharmaceutical compositions thereof” (priority 1985, dated 1988)
≈ marks a conversion by molar mass, not a printed value. Like-named read-outs stand apart in the source and are kept apart here.

Experiments:
B. distasonis 8503 = test: MIC, in vitro antibacterial activity (standard strains); type: cell-based; conditions: Parabacteroides distasonis, 8503; 10^6 cells/ml; Gram -; read-out: MIC
[1] = test system: Peptostreptococcus anaerobius KYA 27337; test: as above; type: cell-based; conditions: Peptostreptococcus anaerobius, KYA27337; 10^6 cells/ml; Gram +; read-out: MIC
S. pneumoniae IID 552 = test: as above; type: cell-based; conditions: Streptococcus pneumoniae, IID552; 10^6 cells/ml; Gram +; read-out: MIC
[2] = test system: S. aureus IID 670 (Terajima); test: as above; type: cell-based, Staphylococcus aureus; conditions: Staphylococcus aureus, IID670; 10^6 cells/ml; Gram +; read-out: MIC
P. aeruginosa IID 1210 = test: as above; type: cell-based, Pseudomonas aeruginosa; conditions: Pseudomonas aeruginosa, IID1210; 10^6 cells/ml; Gram -; read-out: MIC
[3] = test system: Pseudomonas aeruginosa V-1; test: as above; type: cell-based; conditions: Pseudomonas aeruginosa, V1; 10^6 cells/ml; Gram -; read-out: MIC
[4] = test system: Eubacterium lentum GAI 5242; test: as above; type: cell-based; conditions: Eggerthella lenta, GAI5242; 10^6 cells/ml; Gram +; read-out: MIC
[5] = test system: Morganella morganii IID 602; test: as above; type: cell-based; conditions: Morganella morganii, IID602; 10^6 cells/ml; Gram -; read-out: MIC
P. aeruginosa IFO 12689 = test: as above; type: cell-based, Pseudomonas aeruginosa; conditions: Pseudomonas aeruginosa, IFO12689; 10^6 cells/ml; Gram -; read-out: MIC
C. ramosum = test: as above; type: cell-based; conditions: Thomasclavelia ramosa; 10^6 cells/ml; Gram +; read-out: MIC
[6] = test system: Bacteroides fragilis GM 7000; test: as above; type: cell-based; conditions: Bacteroides fragilis, GM7000; 10^6 cells/ml; Gram -; read-out: MIC
[7] = test system: Peptococcus magnus KY 017; test: as above; type: cell-based; conditions: Finegoldia magna, KY017; 10^6 cells/ml; Gram +; read-out: MIC
[8] = test system: Yersinia enterocolitica IID 981; test: as above; type: cell-based; conditions: Yersinia enterocolitica, IID981
E. faecalis IID 682 = test: as above; type: cell-based; conditions: Enterococcus faecalis, IID682; 10^6 cells/ml; Gram +; read-out: MIC
C. perfringens KYA 13123 = test: microbe, parasite or virus in culture; type: cell-based; conditions: Clostridium perfringens, KYA13123
E. coli ATCC 10536 = test: MIC, in vitro antibacterial activity (standard strains); type: cell-based, Escherichia coli; conditions: Escherichia coli, ATCC10536; 10^6 cells/ml; Gram -; read-out: MIC
[9] = test system: Fusobacterium mortiferum 4249; test: as above; type: cell-based; conditions: Fusobacterium mortiferum, 4249; 10^6 cells/ml; Gram -; read-out: MIC
E. coli ML 4707 = test: as above; type: cell-based, Escherichia coli; conditions: Escherichia coli, ML4707, 10^6 cells/ml; Gram -; Table 1; read-out: MIC
[10] = test system: Serratia marcescens IID 618; test: as above; type: cell-based; conditions: Serratia marcescens, IID618; 10^6 cells/ml; Gram -; read-out: MIC
K. pneumoniae 1-220S = test: as above; type: cell-based, Klebsiella pneumoniae; conditions: Klebsiella pneumoniae, 1220S; 10^6 cells/ml; Gram -; read-out: MIC
[11] = test system: Proteus vulgaris IFO 3167; test: as above; type: cell-based; conditions: Proteus vulgaris, IFO3167; 10^6 cells/ml; Gram -; read-out: MIC
[12] = test system: Propionibacterium acens 11828; test: as above; type: cell-based; conditions: Propionibacterium, 11828; 10^6 cells/ml; Gram +; read-out: MIC
Pst. micros UPI 5464-1 = test: as above; type: cell-based; conditions: Parvimonas micra, UPI54641; 10^6 cells/ml; Gram +; read-out: MIC
B. vulgatus KYA 29327 = test: as above; type: cell-based; conditions: Phocaeicola vulgatus, KYA29327; 10^6 cells/ml; Gram -; read-out: MIC
[13] = test system: Bacillus subtilis PCI 219; test: as above; type: cell-based; conditions: Bacillus subtilis, PCI219; 10^6 cells/ml; Gram +; read-out: MIC
[14] = test system: B. thetaiotaomicron (0661); test: as above; type: cell-based; conditions: Bacteroides thetaiotaomicron; 10^6 cells/ml; Gram -; read-out: MIC
[15] = test system: Citrobacter freundii IID 976; test: as above; type: cell-based; conditions: Citrobacter freundii, IID976; 10^6 cells/ml; Gram -; read-out: MIC
S. epidermidis IID 866 = test: as above; type: cell-based; conditions: Staphylococcus epidermidis, IID866; 10^6 cells/ml; Gram +; read-out: MIC
F. necrophorum S-45 = test: as above; type: cell-based; conditions: Fusobacterium necrophorum, S45; 10^6 cells/ml; Gram -; read-out: MIC
F. varium KYA 8501 = test: as above; type: cell-based; conditions: Fusobacterium varium, KYA8501; 10^6 cells/ml; Gram -; read-out: MIC
P. mirabilis IID 994 = test: as above; type: cell-based; conditions: Proteus mirabilis, IID994; 10^6 cells/ml; Gram -; read-out: MIC
B. fragilis 0558 = test: as above; type: cell-based, Bacteroides fragilis; conditions: Bacteroides fragilis, 0558; 10^6 cells/ml; Gram -; read-out: MIC

Structure (SMILES) | MIC (B. distasonis 8503) [µg/mL] | MIC [1] [µg/mL] | MIC (S. pneumoniae IID 552) [µg/mL] | MIC [2] [µg/mL] | MIC (P. aeruginosa IID 1210) [µg/mL] | MIC [3] [µg/mL] | MIC [4] [µg/mL] | MIC [5] [µg/mL] | MIC (P. aeruginosa IFO 12689) [µg/mL] | MIC (C. ramosum) [µg/mL] | MIC [6] [µg/mL] | MIC [7] [µg/mL] | MIC (E. faecalis IID 682) [µg/mL] | MIC (C. perfringens KYA 13123) [µg/mL] | MIC (E. coli ATCC 10536) [µg/mL] | MIC [9] [µg/mL] | MIC (E. coli ML 4707) [µg/mL] | MIC [10] [µg/mL] | MIC (K. pneumoniae 1-220S) [µg/mL] | MIC [11] [µg/mL] | further results
CCNCC1CN(c2c(F)cc3c(=O)c(C(=O)O)cn(C4CC4)c3c2Cl)CC1C (stereo not shown) [Example 14, 8-Chloro-1-cyclopropyl-7-(3-ethylaminomethyl-4-methyl-1-pyrrolidinyl)-6-fluoro-1,4-dihydro-4-oxo-3-quinolinecarboxylic acid] | 0.39 (≈ 0.924 µM) | ≤ 0.05 | 0.05 (≈ 0.119 µM) | 0.0125 (≈ 0.0296 µM) | 3.13 (≈ 7.42 µM) | 0.78 (≈ 1.85 µM) | 0.2 (≈ 0.474 µM) | 0.2 (≈ 0.474 µM) | 3.13 (≈ 7.42 µM) | 0.2 (≈ 0.474 µM) | 0.1 (≈ 0.237 µM) | ≤ 0.05 | 0.05 (≈ 0.119 µM) | ≤ 0.05 | 0.025 (≈ 0.0593 µM) | 0.2 (≈ 0.474 µM) | 0.05 (≈ 0.119 µM) | 0.2 (≈ 0.474 µM) | 0.2 (≈ 0.474 µM) | 0.05 (≈ 0.119 µM) | MIC ([8]; 10^6 cells/ml, Gram -, read-out: MIC): 0.2 µg/mL (≈ 0.474 µM); MIC [12]: 1.56 µg/mL (≈ 3.7 µM); MIC (Pst. micros UPI 5464-1): 0.39 µg/mL (≈ 0.924 µM); MIC (B. vulgatus KYA 29327): ≤ 0.05 µg/mL; MIC [13]: 0.0125 µg/mL (≈ 0.0296 µM); MIC [14]: 0.2 µg/mL (≈ 0.474 µM); MIC [15]: 0.1 µg/mL (≈ 0.237 µM); MIC (S. epidermidis IID 866): 0.0125 µg/mL (≈ 0.0296 µM); MIC (F. necrophorum S-45): 0.1 µg/mL (≈ 0.237 µM); MIC (F. varium KYA 8501): 1.56 µg/mL (≈ 3.7 µM); MIC (P. mirabilis IID 994): 0.1 µg/mL (≈ 0.237 µM); MIC (B. fragilis 0558): ≤ 0.05 µg/mL
C[C@H]1CN(c2c(F)cc3c(=O)c(C(=O)O)cn(C4CC4)c3c2Br)C[C@H]1N (relative stereo) [Example 21, 7-(cis-3-Amino-4-methyl-1-pyrrolidinyl)-8-bromo-1-cyclopropyl-6-fluoro-1,4-dihydro-4-oxo-3-quinolinecarboxylic acid] | 0.39 (≈ 0.919 µM) | 0.2 (≈ 0.471 µM) | 0.2 (≈ 0.471 µM) | 0.05 (≈ 0.118 µM) | 1.56 (≈ 3.68 µM) | 0.39 (≈ 0.919 µM) | 0.05 (≈ 0.118 µM) | 0.05 (≈ 0.118 µM) | 0.78 (≈ 1.84 µM) | 0.78 (≈ 1.84 µM) | 0.1 (≈ 0.236 µM) | 0.05 (≈ 0.118 µM) | 0.2 (≈ 0.471 µM) | 0.1 (≈ 0.236 µM) | 0.0125 (≈ 0.0295 µM) | 0.2 (≈ 0.471 µM) | 0.0125 (≈ 0.0295 µM) | 0.025 (≈ 0.0589 µM) | 0.05 (≈ 0.118 µM) | 0.0125 (≈ 0.0295 µM) | MIC [8]: 0.025 µg/mL (≈ 0.0589 µM); MIC [12]: 1.56 µg/mL (≈ 3.68 µM); MIC (Pst. micros UPI 5464-1): 0.1 µg/mL (≈ 0.236 µM); MIC (B. vulgatus KYA 29327): 0.1 µg/mL (≈ 0.236 µM); MIC [13]: 0.0125 µg/mL (≈ 0.0295 µM); MIC [14]: 0.2 µg/mL (≈ 0.471 µM); MIC [15]: 0.025 µg/mL (≈ 0.0589 µM); MIC (S. epidermidis IID 866): 0.05 µg/mL (≈ 0.118 µM); MIC (F. necrophorum S-45): 0.1 µg/mL (≈ 0.236 µM); MIC (F. varium KYA 8501): 0.78 µg/mL (≈ 1.84 µM); MIC (P. mirabilis IID 994): 0.025 µg/mL (≈ 0.0589 µM); MIC (B. fragilis 0558): 0.05 µg/mL (≈ 0.118 µM)
